The test system of data set [1] is NOD islets. As to the kind of experiment: NOD islets treated with BH3 mimetics, senescence marker mRNA. The data set is classed as cell-based, mouse. Particulars: NOD islets treated with BH3 mimetic. An excerpt:
Example 4. BH3 mimetics preferentially eliminate SASP beta cells in NOD mice. To determine the role of SASP cells in the development of T1D, we next explored whether pro-survival checkpoints could be exploited to promote selective deletion of senescent beta cells. […] The Bcl-2 family contains a hydrophobic groove called the BH3 domain and ‘BH3 mimetics’ are pharmacological compounds that mimic the binding of the BH3-only initiator proteins to the pro-survival members. The BH3 mimetics can trigger apoptosis with some specificity in cells that have high levels of Bcl-2 or the related members. A number of small molecule inhibitors that target Bcl-2, Bcl-xL, Bcl-w or Mcl-1 proteins have been developed and some of them have been used to preferentially trigger apoptosis in senescent cells, both in vitro and in vivo. To determine which Bcl-2 pro-survival members were relevant to SASP islet cells, we treated NOD islets with BH3 mimetics that had different specificities. ABT-737 targets Bcl-2 and family members Bcl-xL and Bcl-w, ABT-199 selectively targets Bcl-2, and Maritoclax targets only Mcl-1. […]

Data set [2] concerns CD45-depleted islet cells. Kind of data set: SASP factors in conditioned media from CD45-depleted islet cells of treated NOD mice. The data set is classed as in vivo. Particulars: compared to vehicle control mice. The procedure:
The secretome of islet cells from the 14-16 week NOD mice was analyzed. Islets depleted of CD45^+ cells were cultured in serum-free media and the resulting culture supernatant, hereafter referred to as conditioned media (CM) was analyzed using a bead-based multi-analyte luminex assay including a variety of key SASP factors and immune cell-specific non-SASP factors (IL-2, Granzyme B). Consistent with the immunohistochemistry analysis, the secretion of SASP factors (IL-6, Serpine1, G-CSF, Ccl2, Mmp9, Mmp12 and Igfpb3) was dramatically higher in the CD45-depleted islet cell populations from 14-week NOD mice as compared with 8-week mice. To determine the time-course of the stress response and SASP in beta cells, younger cohorts of 10 and 12-week old euglycemic NOD mice were analyzed by immunostaining for Cdknla and IL-6.
(§1) Similarly, THP1 chemotaxis activity was reduced in the CM upon ABT-737 treatment of islets relative to vehicle-treated islets ex vivo.

Another data set relates to immune compartment. As to the kind of experiment: Flow cytometry of immune cell types in spleen, pancreatic lymph nodes and islets of treated mice. Particulars: pancreatic lymph nodes, islets; for proportions or balance of effector T cells, B cells and regulatory T cells: relative to vehicle control mice. It counts as in vivo, NOD mice. Here is the method: (§2) Example 5. Targeted depletion of SASP beta cells prevents diabetes in NOD mice The impact of senolytic treatments on immune cells was assessed. In islets from NOD mice treated with ABT-737, there was a 2-fold increase in apoptotic cells, as measured by flow cytometry for Annexin V and propidium iodide, in the endocrine compartment compared to vehicle control mice (FIG. 1). […] Flow cytometry was then used to examine the distributions and proportions of main lymphoid cell types involved in T1D in the spleen, pancreatic lymph nodes, and islets from vehicle control and ABT-737- and ABT-199-treated mice.
Background: A flow cytometer gives signals particle by particle.

In the next data set the test system is NOD mice. Kind of data set: Diabetes incidence in NOD mice after senolytic treatment. The data set is classed as in vivo. The procedure:
FIG. 2 depicts the incidence of diabetes in a cohort of NOD mice treated with ABT-199 (n=5) or vehicle (n=5).
For studies using ABT-737, 10 week old euglycemic NOD/ShiltJ mice were given oral gavage of 100 mg/kg ABT-737 or vehicle (30% propylene glycol, 5% Tween-80 and 65% D5W) for 3 consecutive days followed by a break for 4 days and then again treated for 3 days (a total of 6 doses), and then untreated for 2 weeks followed by three consecutive days of ABT-737 or vehicle treatment and then allowed to age without further treatment until 28 weeks of age.
To determine whether clearance of SASP beta cells prevented diabetes, 10 week euglycemic NOD mice were administered ABT-737 by oral gavage for two weeks, followed by another dose at 16 weeks and allowed to age. Strikingly, while 60% of vehicle control mice were diabetic at this time, only 40% of ABT-737-treated mice became diabetic. We performed a similar study with ABT-199, administering the drug by oral gavage for 2 weeks from 11-13 weeks of age and allowing the mice to age to 30 weeks. Remarkably, while 100% of the controls became diabetic by 28 weeks, only 10% of the ABT-199-treated mice were diabetic (FIG. 2).

For the next data set, the system named is SASP beta cells. As to the kind of experiment: ABT-737 oral gavage in NOD mice, immunostaining of senescence and SASP markers in beta cells. The conditions noted are these: oral gavage for 1 week. The data set is classed as in vivo. Here is the method: To determine whether ABT-737 targeted SASP beta cells for apoptosis in vivo, NOD mice were administered ABT-737 via oral gavage for 1 week followed by analysis of senescence and SASP markers by immunostaining.

The test system of data set [3] is NOD MEFs and 8-week NOD islet cells. Kind of data set: Paracrine senescence activity of conditioned media from islet cells of treated mice. The data set is classed as cell-based, mouse. Particulars: CM from CD45-depleted islet cells of treated mice, on NOD MEFs and 8-week NOD islet cells. The procedure: Example 3. Non-cell autonomous activities of islet SASP. To address whether the SASP of beta cells had non-cell autonomous effects resembling SASP, the ability of secreted factors from CD45-depleted islet cells of 14 wk NOD mice to induce senescence in NOD mouse embryonic fibroblasts (MEFs) and in 8 week NOD islets (when senescence is not observed) was assessed. When early passage NOD MEFs were cultured in the presence of CM from 14 wk CD45-depleted NOD islet cells (NCM) they induced Cdkn1a and Cdkn2a expression and increased SA-βgal activity, similarly to the senescent MEF CM control (SCM). The NCM was also capable of increasing the proportion of SA-βgal^+ cells in the cultured islets from 8 week old NOD mice.
as §1

The next data set concerns human THP-1 cell line. Kind of data set: THP1 monocyte chemotaxis (transwell) with conditioned media of treated islets. The data set is classed as cell-based. Particulars: treatment of islets ex vivo, relative to vehicle-treated islets. The procedure: The ability of CM from NOD islet cells and human islets to induce monocyte chemotaxis using the transwell assay was tested using the human THP-1 cell line. NCM was capable of stimulating chemotaxis 3-fold over the SFM control, similarly to the positive control, serum-free media conditioned with recombinant mouse CCL2. In addition, CM from human islets expressing SASP induced THP1 chemotaxis ˜5-fold over the SFM control.
as §1

The test system of data set [4] is NOD islets. Kind of data set: Apoptosis in islets of treated NOD mice (Annexin V/propidium iodide flow cytometry, TUNEL). It counts as in vivo. The procedure:
FIG. 1 depicts the abundance of apoptotic cells (Annexin V^+) in the CD45-(endocrine enriched) fractions of NOD islets treated with ABT-737 for two weeks, compared to control vehicle-treated mice (n=2 mice per group), error bars are s.d. *p<0.05, two-tailed T-test.
as §2

For data set [5], the system named is normal human donor islets. Kind of data set: Bleomycin-induced senescence and SASP in normal human donor islets. The data set is classed as cell-based. Here is the method: Next, normal human donor islets were treated with the chemotherapeutic agent bleomycin to induce double-strand DNA breaks and monitored the development of stress-induced senescence and SASP by qRT-PCR and secretion assays after 5 days, coinciding with the typical onset of SASP.

As for `CC1(C)CCC(CN2CCN(c3ccc(C(=O)NS(=O)(=O)c4ccc(NCC5CCOCC5)c([N+](=O)[O-])c4)c(Oc4cnc5[nH]ccc5c4)c3)CC2)=C(c2ccc(Cl)cc2)C1` [ABT-199], in the data set on NOD islets [1], the “Cdkn1a mRNA from treated islets” value is “significant reduction” and the “Cdkn2a mRNA from treated islets” value is “significant reduction”. Further, the “levels of SASP factors in CM from CD45-depleted islet cells” value in data set [2] is on record as “lower levels of most of the SASP factors”. Besides, in the data set with immune compartment, the “proportions of macrophages or dendritic cells” value is given as “no changes”; the “proportions or balance of effector T cells, B cells and regulatory T cells” value is recorded as “no significant changes”. The compound further came in with a treated mice diabetic in the data set with NOD mice (dosed 2 weeks from 11-13 weeks of age, by 28 weeks, 100% of controls diabetic) of 10%.

In the case of `CN(C)CC[C@H](CSc1ccccc1)Nc1ccc(S(=O)(=O)NC(=O)c2ccc(N3CCN(Cc4ccccc4-c4ccc(Cl)cc4)CC3)cc2)cc1[N+](=O)[O-]` [ABT-737], in the data set on NOD islets [1], the “Cdkn1a mRNA from treated islets” value was “significant reduction” and the “Cdkn2a mRNA from treated islets” value was “significant reduction”. Moreover, the “Cdkn2a expression in beta cells (immunostaining)” value with SASP beta cells is “marked reduction”. Besides, the “reduction in Cdkn2a+ beta cells” value with SASP beta cells (quantification) is “over 40%”. Further, in the data set on SASP beta cells (relative to controls), the “SASP marker Mmp2+ beta cells” value was “only rarely detected”. Also, the “levels of SASP factors in CM from CD45-depleted islet cells” value in [2] is on record as “lower levels of most of the SASP factors”. Also, in data set [3], the “paracrine senescence activity of CM” value is on record as “diminished”. In addition, the “THP1 chemotaxis activity of CM” value in the data set with human THP-1 cell line is listed as “reduced”. In the data set with NOD islets [4] (CD45- fraction of NOD islets, treated two weeks, compared to vehicle control mice), the “increase in apoptotic cells (Annexin V+) in the endocrine compartment” value is given as 2 fold. Also, the “TUNEL staining of apoptotic islet cells” value with NOD islets [4] (pancreata from treated mice) was “showed TUNEL^+ cells within the islet”. Also, the “apoptosis in the immune compartment” value in the data set on NOD islets [4] (relative to vehicle controls) is recorded as “no significant differences”. In the data set on immune compartment, the “proportions of macrophages or dendritic cells” value is on record as “no changes”; the “proportions or balance of effector T cells, B cells and regulatory T cells” value is listed as “no significant changes”. Further, the “treated mice that became diabetic” value in the data set on NOD mice (10 week NOD mice, oral gavage two weeks plus another dose at 16 weeks, 60% of vehicle controls diabetic) was 40%.

For `O=C(c1ccccc1O)c1[nH]c(Cl)c(Cl)c1-n1c(C(=O)c2ccccc2O)cc(Cl)c1Cl` [Maritoclax], in the data set with NOD islets [1], the “Cdkn1a mRNA from treated islets” value is listed as “did not have effects” and the “Cdkn2a mRNA from treated islets” value is given as “did not have effects”.

In the case of bleomycin, the “expression of CDKN1A and CDKN2A (qRT-PCR)” value in data set [5] (after 5 days) was “induced expression”. Besides, the “SASP factors IL-6, IL-8, IL-1β and TNFα in CM (Luminex)” value in data set [5] (compared with control islet CM) is recorded as “increased levels”.

Source of the values: patent US11419883B2, “Inhibiting senescent processes in beta cells for the prevention of type 1 diabetes” (The Regents of the University of California, priority 2017, dated 2022).
